Data published in ChEMBL document CHEMBL3779862, “Amyloid cascade in Alzheimer's disease: Recent advances in medicinal chemistry” (Eur J Med Chem, 2016).

What was measured:
[1] = target: T1, Amyloid-beta precursor protein (Homo sapiens, UniProt P05067); experiment: Inhibition of human amyloid beta (1 to 42) aggregation at 100 uM measured after 72 hrs by Thioflavin T-based fluorometric assay
[2] = target: Acetylcholinesterase (Homo sapiens, UniProt P22303); experiment: Inhibition of human AChE assessed as hydrolytic activity using acetylthiocholine iodide as substrate measured for 15 mins by Ellmans assay
Chain of Acetylcholinesterase (P22303 whole entry): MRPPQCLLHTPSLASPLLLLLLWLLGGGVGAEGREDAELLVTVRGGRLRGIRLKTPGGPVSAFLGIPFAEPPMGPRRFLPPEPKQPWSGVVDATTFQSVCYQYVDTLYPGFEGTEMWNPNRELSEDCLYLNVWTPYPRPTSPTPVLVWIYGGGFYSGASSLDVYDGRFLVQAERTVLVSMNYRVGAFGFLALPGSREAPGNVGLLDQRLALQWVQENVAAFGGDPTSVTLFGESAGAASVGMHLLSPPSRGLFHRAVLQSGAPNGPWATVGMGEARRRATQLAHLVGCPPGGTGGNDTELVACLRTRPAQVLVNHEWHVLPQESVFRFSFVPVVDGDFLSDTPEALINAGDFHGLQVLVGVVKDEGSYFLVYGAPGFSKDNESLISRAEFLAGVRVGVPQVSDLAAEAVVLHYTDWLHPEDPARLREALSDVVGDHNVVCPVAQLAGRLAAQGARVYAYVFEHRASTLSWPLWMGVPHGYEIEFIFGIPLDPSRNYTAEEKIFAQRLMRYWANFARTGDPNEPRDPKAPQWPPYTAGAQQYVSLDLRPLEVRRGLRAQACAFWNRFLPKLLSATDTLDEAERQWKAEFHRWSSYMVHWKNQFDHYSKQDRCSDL

[3] = target: Cholinesterase (Homo sapiens, UniProt P06276); experiment: Inhibition of human BuChE assessed as hydrolytic activity using butyrylthiocholine iodide as substrate measured for 15 mins by Ellmans assay
Chain of Cholinesterase (P06276 whole entry): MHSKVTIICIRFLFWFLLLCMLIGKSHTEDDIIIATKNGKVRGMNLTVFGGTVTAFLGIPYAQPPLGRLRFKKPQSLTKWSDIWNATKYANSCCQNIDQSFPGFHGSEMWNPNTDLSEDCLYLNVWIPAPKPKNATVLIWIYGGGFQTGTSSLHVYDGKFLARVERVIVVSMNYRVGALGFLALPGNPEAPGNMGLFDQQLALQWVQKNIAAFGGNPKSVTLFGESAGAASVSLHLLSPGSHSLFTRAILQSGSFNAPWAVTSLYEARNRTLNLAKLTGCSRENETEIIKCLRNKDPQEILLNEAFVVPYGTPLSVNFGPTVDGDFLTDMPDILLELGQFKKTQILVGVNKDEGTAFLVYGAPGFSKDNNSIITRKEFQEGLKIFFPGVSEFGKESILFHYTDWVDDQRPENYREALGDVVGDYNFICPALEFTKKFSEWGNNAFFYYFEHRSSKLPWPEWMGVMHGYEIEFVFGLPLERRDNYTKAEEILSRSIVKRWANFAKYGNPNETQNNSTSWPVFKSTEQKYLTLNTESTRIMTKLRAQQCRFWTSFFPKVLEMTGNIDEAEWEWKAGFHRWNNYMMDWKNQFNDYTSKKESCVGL

[4] = target: T1, Amyloid-beta precursor protein; experiment: Inhibition of amyloid beta (1 to 42) (unknown origin) aggregation at 50 uM measured after 3 hrs by Thioflavin T-based fluorometric assay
[5] = target: T1, Amyloid-beta precursor protein; experiment: Inhibition of amyloid beta (1 to 42) (unknown origin) aggregation measured after 24 hrs by Thioflavin T-based fluorometric assay

T1 sequence (P05067 whole entry): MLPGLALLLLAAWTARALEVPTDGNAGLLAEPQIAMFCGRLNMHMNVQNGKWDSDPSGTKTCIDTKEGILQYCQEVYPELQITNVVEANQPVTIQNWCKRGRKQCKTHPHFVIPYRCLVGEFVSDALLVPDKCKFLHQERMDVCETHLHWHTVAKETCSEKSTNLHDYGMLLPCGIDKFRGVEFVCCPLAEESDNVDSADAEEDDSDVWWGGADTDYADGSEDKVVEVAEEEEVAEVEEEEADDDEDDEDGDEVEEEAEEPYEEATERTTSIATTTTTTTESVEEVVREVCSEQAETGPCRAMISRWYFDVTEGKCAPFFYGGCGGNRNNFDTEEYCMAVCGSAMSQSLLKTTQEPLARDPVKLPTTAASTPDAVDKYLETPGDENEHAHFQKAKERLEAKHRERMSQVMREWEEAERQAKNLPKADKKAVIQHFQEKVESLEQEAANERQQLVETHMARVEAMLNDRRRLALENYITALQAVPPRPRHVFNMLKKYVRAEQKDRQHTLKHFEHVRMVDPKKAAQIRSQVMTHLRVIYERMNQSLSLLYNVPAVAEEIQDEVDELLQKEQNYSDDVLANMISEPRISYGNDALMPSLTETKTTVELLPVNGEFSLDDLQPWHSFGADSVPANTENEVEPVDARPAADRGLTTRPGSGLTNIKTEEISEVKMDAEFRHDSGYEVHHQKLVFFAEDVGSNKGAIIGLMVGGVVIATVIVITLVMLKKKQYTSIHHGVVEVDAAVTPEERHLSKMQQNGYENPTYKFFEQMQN

Structure (SMILES) | inhibition [4] | IC50 [5] | inhibition [1] | IC50 [2] | IC50 [3]
C[N+](C)(C)CCOC(=O)c1ccc(Oc2nc(Oc3ccc(C(=O)OCC[N+](C)(C)C)cc3)nc(Oc3ccc(C(=O)OCC[N+](C)(C)C)cc3)n2)cc1 | – | – | 50.9% | 0.3 µM | 3.9 µM
O=C(NC1C2CC3CC(C2)CC1C3)c1nc(Cc2ccccc2)cc(Oc2ccccc2)n1 (centres undefined) | 47% | – | – | – | –
CC(COC(=O)c1ccc(Oc2nc(Oc3ccc(C(=O)OCC(C)N(C)C)cc3)nc(Oc3ccc(C(=O)OCC(C)N(C)C)cc3)n2)cc1)N(C)C (centres undefined) | – | – | 68.5% | 80.8 µM | 164 µM
COc1nc(Oc2ccc(C(=O)OCC(C)N(C)C)cc2)nc(Oc2ccc(C(=O)OCC(C)N(C)C)cc2)n1 (centres undefined) | – | – | 58.4% | 111 µM | > 200 µM

Further lines, with some results ahead:

inhibition [4] | IC50 [5] | Structure (SMILES) | inhibition [1] | IC50 [2] | IC50 [3]
71% | – | CC(C)CCNC(=O)c1cc(Cc2ccccc2)cc(Oc2ccccc2)n1 | – | – | –
– | 40.5 µM | Fc1ccc(-c2cc(NCCNc3cc(-c4ccc(F)cc4)[nH]n3)n[nH]2)cc1 | – | – | –
– | 7.5 µM | CN(C)c1ccc(-c2cc(NCCNc3cc(-c4ccc(N(C)C)cc4)[nH]n3)n[nH]2)cc1 | – | – | –
– | 29 µM | Cc1ccc(-c2cc(NCCNc3cc(-c4cccs4)[nH]n3)n[nH]2)cc1 | – | – | –
